Source: the NIST ThermoML archive (doi:10.1007/s10765-005-5566-6)
Numbers after ± are expanded uncertainties.

Conditions: Gas, Hot wire method

O=C=O [carbon dioxide]
thermal conductivity (298.89 K, 6100 kPa): 0.03312 ± 0.00059 W/m/K
thermal conductivity (299.02 K, 5760 kPa): 0.02896 ± 0.00053 W/m/K
thermal conductivity (299.19 K, 5400 kPa): 0.02633 ± 0.00048 W/m/K
thermal conductivity (299.31 K, 5035 kPa): 0.02441 ± 0.00045 W/m/K
thermal conductivity (299.5 K, 4555 kPa): 0.02268 ± 0.00042 W/m/K
thermal conductivity (299.6 K, 3980 kPa): 0.02109 ± 0.00039 W/m/K
thermal conductivity (299.73 K, 3285 kPa): 0.01968 ± 0.00037 W/m/K
thermal conductivity (299.85 K, 2555 kPa): 0.01861 ± 0.00035 W/m/K
thermal conductivity (300.06 K, 1702 kPa): 0.01777 ± 0.00034 W/m/K
thermal conductivity (300.37 K, 714 kPa): 0.01712 ± 0.00033 W/m/K
thermal conductivity (302.67 K, 6635 kPa): 0.037 ± 0.00066 W/m/K
thermal conductivity (302.77 K, 6400 kPa): 0.03309 ± 0.00059 W/m/K
thermal conductivity (302.8 K, 6025 kPa): 0.02905 ± 0.00053 W/m/K
thermal conductivity (302.86 K, 5675 kPa): 0.02694 ± 0.00049 W/m/K
thermal conductivity (302.92 K, 5290 kPa): 0.02471 ± 0.00045 W/m/K
thermal conductivity (302.97 K, 4870 kPa): 0.02339 ± 0.00043 W/m/K
thermal conductivity (303.08 K, 4340 kPa): 0.02178 ± 0.0004 W/m/K
thermal conductivity (303.22 K, 3765 kPa): 0.02053 ± 0.00038 W/m/K
thermal conductivity (303.51 K, 3160 kPa): 0.01961 ± 0.00037 W/m/K
thermal conductivity (303.81 K, 2415 kPa): 0.01872 ± 0.00035 W/m/K
thermal conductivity (303.99 K, 1612 kPa): 0.01795 ± 0.00034 W/m/K
thermal conductivity (304.21 K, 724 kPa): 0.01741 ± 0.00033 W/m/K
thermal conductivity (324.87 K, 7960 kPa): 0.03214 ± 0.00058 W/m/K
thermal conductivity (324.9 K, 7750 kPa): 0.03118 ± 0.00056 W/m/K
thermal conductivity (324.92 K, 7440 kPa): 0.02954 ± 0.00054 W/m/K
thermal conductivity (324.95 K, 5960 kPa): 0.02501 ± 0.00046 W/m/K
thermal conductivity (325.01 K, 6900 kPa): 0.02771 ± 0.0005 W/m/K
thermal conductivity (325.04 K, 6760 kPa): 0.02716 ± 0.0005 W/m/K
thermal conductivity (325.1 K, 5575 kPa): 0.02434 ± 0.00045 W/m/K
thermal conductivity (325.12 K, 6360 kPa): 0.02611 ± 0.00048 W/m/K
thermal conductivity (325.28 K, 5060 kPa): 0.02323 ± 0.00043 W/m/K
thermal conductivity (325.42 K, 4605 kPa): 0.02254 ± 0.00042 W/m/K
thermal conductivity (325.48 K, 4040 kPa): 0.02182 ± 0.0004 W/m/K
thermal conductivity (325.64 K, 3500 kPa): 0.02126 ± 0.0004 W/m/K
thermal conductivity (325.81 K, 2880 kPa): 0.02052 ± 0.00038 W/m/K
thermal conductivity (325.93 K, 2218 kPa): 0.02003 ± 0.00037 W/m/K
thermal conductivity (326.03 K, 1514 kPa): 0.01958 ± 0.00037 W/m/K
thermal conductivity (326.17 K, 684 kPa): 0.01921 ± 0.00036 W/m/K
thermal conductivity (326.26 K, 497 kPa): 0.0191 ± 0.00036 W/m/K
thermal conductivity (350.83 K, 9985 kPa): 0.03324 ± 0.0006 W/m/K
thermal conductivity (350.89 K, 8840 kPa): 0.03029 ± 0.00055 W/m/K
thermal conductivity (350.96 K, 7540 kPa): 0.02768 ± 0.0005 W/m/K
thermal conductivity (351.12 K, 6040 kPa): 0.02551 ± 0.00047 W/m/K
thermal conductivity (351.44 K, 4275 kPa): 0.02351 ± 0.00043 W/m/K
thermal conductivity (351.82 K, 2214 kPa): 0.02197 ± 0.0004 W/m/K
thermal conductivity (351.87 K, 1820 kPa): 0.02181 ± 0.0004 W/m/K
thermal conductivity (351.91 K, 1420 kPa): 0.02153 ± 0.0004 W/m/K
thermal conductivity (352.1 K, 994 kPa): 0.02141 ± 0.00039 W/m/K
thermal conductivity (352.23 K, 572 kPa): 0.02136 ± 0.00039 W/m/K
thermal conductivity (375.68 K, 14930 kPa): 0.04175 ± 0.00075 W/m/K
thermal conductivity (375.71 K, 13880 kPa): 0.03888 ± 0.0007 W/m/K
thermal conductivity (375.75 K, 12560 kPa): 0.03615 ± 0.00065 W/m/K
thermal conductivity (375.8 K, 11100 kPa): 0.03322 ± 0.0006 W/m/K
thermal conductivity (375.85 K, 9640 kPa): 0.03079 ± 0.00056 W/m/K
thermal conductivity (375.91 K, 8060 kPa): 0.02887 ± 0.00052 W/m/K
thermal conductivity (376.01 K, 6260 kPa): 0.02673 ± 0.00049 W/m/K
thermal conductivity (376.11 K, 4240 kPa): 0.02504 ± 0.00046 W/m/K
thermal conductivity (376.28 K, 2004 kPa): 0.02377 ± 0.00043 W/m/K
thermal conductivity (376.51 K, 1015 kPa): 0.02346 ± 0.00043 W/m/K
thermal conductivity (400.85 K, 15010 kPa): 0.03843 ± 0.00069 W/m/K
thermal conductivity (400.93 K, 13550 kPa): 0.03623 ± 0.00066 W/m/K
thermal conductivity (400.98 K, 11950 kPa): 0.03389 ± 0.00061 W/m/K
thermal conductivity (401.03 K, 10340 kPa): 0.03194 ± 0.00058 W/m/K
thermal conductivity (401.15 K, 8495 kPa): 0.03004 ± 0.00054 W/m/K
thermal conductivity (401.3 K, 6660 kPa): 0.0285 ± 0.00052 W/m/K
thermal conductivity (401.42 K, 4600 kPa): 0.02712 ± 0.00049 W/m/K
thermal conductivity (401.6 K, 2382 kPa): 0.02597 ± 0.00047 W/m/K
thermal conductivity (401.66 K, 1690 kPa): 0.02584 ± 0.00047 W/m/K
thermal conductivity (401.74 K, 975 kPa): 0.02566 ± 0.00046 W/m/K
thermal conductivity (427.12 K, 12000 kPa): 0.03429 ± 0.00062 W/m/K
thermal conductivity (427.23 K, 9898 kPa): 0.0325 ± 0.00059 W/m/K
thermal conductivity (427.38 K, 8240 kPa): 0.03127 ± 0.00056 W/m/K
thermal conductivity (427.51 K, 6160 kPa): 0.02966 ± 0.00053 W/m/K
thermal conductivity (427.67 K, 3970 kPa): 0.02879 ± 0.00052 W/m/K
thermal conductivity (427.7 K, 3020 kPa): 0.02833 ± 0.00051 W/m/K
thermal conductivity (427.95 K, 2050 kPa): 0.02812 ± 0.0005 W/m/K
thermal conductivity (428.05 K, 1040 kPa): 0.02797 ± 0.0005 W/m/K
